{"source": "patent US9090596B2", "about": "“Disubstituted 3,4-diamino-3-cyclobutene-1,2-dione compounds for use in the treatment of chemokine-mediated pathologies” (GALDERMA RESEARCH & DEVELOPMENT, priority 2011, dated 2015)", "key": {"CXCR2 receptor": {"biological_target": "CXCR2 receptor (Homo sapiens (Human), UniProt P25025)", "sequence (P25025 whole entry)": "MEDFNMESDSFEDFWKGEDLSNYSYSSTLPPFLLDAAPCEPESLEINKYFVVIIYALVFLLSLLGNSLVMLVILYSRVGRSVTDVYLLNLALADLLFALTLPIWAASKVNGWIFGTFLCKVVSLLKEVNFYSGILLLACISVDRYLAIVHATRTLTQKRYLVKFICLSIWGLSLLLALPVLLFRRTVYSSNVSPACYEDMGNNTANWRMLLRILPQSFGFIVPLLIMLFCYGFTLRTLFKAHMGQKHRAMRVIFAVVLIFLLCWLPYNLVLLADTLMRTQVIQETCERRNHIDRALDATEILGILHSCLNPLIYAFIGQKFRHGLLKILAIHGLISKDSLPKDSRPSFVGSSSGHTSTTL", "experiment": "β-arrestin 2 recruitment test, PathHunter HEK293-CXCR2 cells stimulated with CXCL8", "format": "cell-based", "settings": "CXCL8 stimulation", "method": "(§1) The in vitro affinity of the compounds of the present invention for the CXCR1 and CXCR2 receptors was determined on a functional test of the β-arrestin recruitment type after receptor activation.\n(§2) β-Arrestin Recruitment Assay:\n(§3) “PathHunter HEK293-CXCR2” or “U2OS hCXCR1 β-arrestin” cells (DiscoveRx Corporation) were seeded overnight at 10 000 cells/well (384-well format) in 20 μl of Opti MEM I medium. A preincubation with the antagonist or the vehicle for 30 min at 37° C. and 5% CO2 was followed by 60 minutes of stimulation with CXCL8 at 37° C. and 5% CO2. The cells were then placed at ambient temperature for 30 minutes. The PathHunter detection reagent (DiscoveRx Corporation) was added. […] The data were analyzed by means of a non-linear curve procedure using the XLFit4 exploitation software (IDBS) and the IC50 values were determined."}, "CXCR1 receptor": {"biological_target": "CXCR1 receptor (Homo sapiens (Human), UniProt P25024)", "sequence (P25024 whole entry)": "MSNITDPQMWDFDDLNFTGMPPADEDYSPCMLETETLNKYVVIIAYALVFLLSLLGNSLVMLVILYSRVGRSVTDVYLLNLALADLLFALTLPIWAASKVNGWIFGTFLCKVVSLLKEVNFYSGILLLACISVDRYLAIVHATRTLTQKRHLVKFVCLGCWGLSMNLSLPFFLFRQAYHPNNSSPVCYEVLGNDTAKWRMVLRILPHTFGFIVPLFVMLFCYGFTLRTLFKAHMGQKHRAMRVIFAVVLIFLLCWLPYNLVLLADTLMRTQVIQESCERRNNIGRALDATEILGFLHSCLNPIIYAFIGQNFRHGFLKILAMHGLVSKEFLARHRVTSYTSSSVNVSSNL", "experiment": "β-arrestin 2 recruitment test, U2OS hCXCR1 β-arrestin cells stimulated with CXCL8", "format": "cell-based", "settings": "CXCL8 stimulation", "method": "as §1, §2, §3"}}, "note": "pIC50: −log10 of the molar value.", "data": [{"smiles": "COC(=O)C1CCCCN1C(=O)c1cccc(Nc2c(NC(c3ccc(C)o3)C3(C)COC3)c(=O)c2=O)c1", "note": "(stereo not drawn)", "values": [{"measurement": "melting point", "value": "130 to 132", "unit": "°C"}]}, {"smiles": "Cc1ccc(C(Nc2c(Nc3cccc(C(=O)N(C)C)c3O)c(=O)c2=O)C2(C)COC2)o1", "note": "(stereo not drawn) [Example 1, 2-hydroxy-N,N-dimethyl-3-(2-{[(5-methylfuran-2-yl)-(3-methyloxetan-3-yl)methyl]amino}-3,4-dioxocyclobut-1-enylamino)benzamide]", "values": [{"measurement": "melting point", "value": "196 to 198", "unit": "°C"}]}, {"smiles": "CCC1(C(Nc2c(Nc3cccc(C(=O)N(C)C)c3O)c(=O)c2=O)c2ccc(C)o2)COC1", "note": "(stereo not drawn) [Example 3, 3-(2-{[(3-ethyloxetan-3-yl)-(5-methylfuran-2-yl)methyl]amino}-3,4-dioxocyclobut-1-enylamino)-2-hydroxy-N,N-dimethylbenzamide]", "values": [{"measurement": "pIC50", "setting": "CXCR2 receptor", "value": 6.97}, {"measurement": "pIC50", "setting": "CXCR1 receptor", "value": 5.94}]}, {"smiles": "Cc1ccc(C(Nc2c(Nc3cccc(C(=O)O)c3O)c(=O)c2=O)C2(C)COC2)o1", "note": "(stereo not drawn) [Example 4, 2-hydroxy-3-(2-{[(5-methylfuran-2-yl)-(3-methyloxetan-3-yl)methyl]amino}-3,4-dioxocyclobut-1-enylamino)benzoic acid]", "values": [{"measurement": "melting point", "value": "180 to 185", "unit": "°C"}]}, {"smiles": "Cc1ccc(C(Nc2c(Nc3cccc(C(=O)N4CC[C@@H](O)C4)c3O)c(=O)c2=O)C2(C)COC2)o1", "note": "(stereo partly drawn) [Example 5, 3-[2-hydroxy-3-((R)-3-hydroxypyrrolidine-1-carbonyl)phenylamino]-4-{[(5-methylfuran-2-yl)-(3-methyloxetan-3-yl)methyl]amino}cyclobut-3-ene-1,2-dione]", "values": [{"measurement": "pIC50", "setting": "CXCR2 receptor", "value": 6.47}, {"measurement": "pIC50", "setting": "CXCR1 receptor", "value": 5.58}]}, {"smiles": "Cc1ccc(C(Nc2c(Nc3cccc(C(=O)N4CC[C@H](O)C4)c3O)c(=O)c2=O)C2(C)COC2)o1", "note": "(stereo partly drawn) [Example 6, 3-[2-hydroxy-3-((S)-3-hydroxypyrrolidine-1-carbonyl)phenylamino]-4-{[(5-methylfuran-2-yl)-(3-methyloxetan-3-yl)methyl]amino}cyclobut-3-ene-1,2-dione]", "values": [{"measurement": "pIC50", "setting": "CXCR2 receptor", "value": 5.96}, {"measurement": "pIC50", "setting": "CXCR1 receptor", "value": 5.55}]}, {"smiles": "COC(=O)[C@@H]1CCCN1C(=O)c1cccc(Nc2c(N[C@@H](c3ccc(C)o3)C3(C)COC3)c(=O)c2=O)c1O", "note": "[Example 9, methyl (S)-1-[2-hydroxy-3-(2-{[(R)-(5-methylfuran-2-yl)-(3-methyloxetan-3-yl)methyl]amino}-3,4-dioxocyclobut-1-enylamino)benzoyl]pyrrolidine-2-carboxylate]", "values": [{"measurement": "pIC50", "setting": "CXCR2 receptor", "value": 7.22}, {"measurement": "pIC50", "setting": "CXCR1 receptor", "value": 6.18}]}, {"smiles": "Cc1ccc(C(Nc2c(Nc3cccc(C(=O)C(C)C)c3O)c(=O)c2=O)C2(C)COC2)o1", "note": "(stereo not drawn) [Example 12, 3-(2-hydroxy-3-isobutyrylphenylamino)-4-{[(5-methylfuran-2-yl)-(3-methyloxetan-3-yl)methyl]amino}cyclobut-3-ene-1,2-dione]", "values": [{"measurement": "pIC50", "setting": "CXCR2 receptor", "value": 7.00}, {"measurement": "pIC50", "setting": "CXCR1 receptor", "value": 5.00}]}, {"smiles": "Cc1ccc(C(Nc2c(Nc3cccc(C(=O)N4CCCC4)c3O)c(=O)c2=O)C2(C)COC2)o1", "note": "(stereo not drawn) [Example 14, 3-[2-hydroxy-3-(pyrrolidine-1-carbonyl)phenylamino]-4-{[(5-methylfuran-2-yl)-(3-methyloxetan-3-yl)methyl]amino}cyclobut-3-ene-1,2-dione]", "values": [{"measurement": "pIC50", "setting": "CXCR2 receptor", "value": 6.58}, {"measurement": "pIC50", "setting": "CXCR1 receptor", "value": 5.89}]}, {"smiles": "Cc1ccc(C(Nc2c(Nc3cccc(C(=O)N4CCOCC4)c3O)c(=O)c2=O)C2(C)COC2)o1", "note": "(stereo not drawn) [Example 15, 3-[2-hydroxy-3-(morpholine-4-carbonyl)phenylamino]-4-{[(5-methylfuran-2-yl)-(3-methyloxetan-3-yl)methyl]amino}cyclobut-3-ene-1,2-dione]", "values": [{"measurement": "pIC50", "setting": "CXCR2 receptor", "value": 6.20}, {"measurement": "pIC50", "setting": "CXCR1 receptor", "value": 5.50}]}, {"smiles": "Cc1ccc(C(Nc2c(Nc3cccn(C)c3=O)c(=O)c2=O)C2(C)COC2)o1", "note": "(stereo not drawn) [Example 19, 3-{[(5-methylfuran-2-yl)-(3-methyloxetan-3-yl)methyl]amino}-4-(1-methyl-2-oxo-1,2-dihydropyridin-3-ylamino)cyclobut-3-ene-1,2-dione]", "values": [{"measurement": "pIC50", "setting": "CXCR2 receptor", "value": 6.40}, {"measurement": "pIC50", "setting": "CXCR1 receptor", "value": 5.30}]}, {"smiles": "Cc1ccc(C(Nc2c(Nc3cccnc3O)c(=O)c2=O)C2(C)COC2)o1", "note": "(stereo not drawn) [Example 20, 3-(2-hydroxypyridin-3-ylamino)-4-{[(5-methylfuran-2-yl)-(3-methyloxetan-3-yl)methyl]amino}-cyclobut-3-ene-1,2-dione]", "values": [{"measurement": "pIC50", "setting": "CXCR2 receptor", "value": 6.47}, {"measurement": "pIC50", "setting": "CXCR1 receptor", "value": 5.18}]}, {"smiles": "Cc1ccc(C(Nc2c(Nc3cccc4nn[nH]c34)c(=O)c2=O)C2(C)COC2)o1", "note": "(stereo not drawn) [Example 23, 3-(3H-benzotriazol-4-ylamino)-4-{[(5-methylfuran-2-yl)-(3-methyloxetan-3-yl)methyl]amino}cyclobut-3-ene-1,2-dione]", "values": [{"measurement": "melting point", "value": "178 to 180", "unit": "°C"}]}, {"smiles": "COc1cccc(C(Nc2c(Nc3cccc(C(=O)N(C)C)c3O)c(=O)c2=O)C2(C)COC2)c1", "note": "(stereo not drawn) [Example 28, 3-(2-{[(3-methyloxetan-3-yl)-(3-methoxyphenyl)methyl]-amino}-3,4-dioxocyclobut-1-enylamino)-2-hydroxy-N,N-dimethylbenzamide]", "values": [{"measurement": "pIC50", "setting": "CXCR2 receptor", "value": 6.32}, {"measurement": "pIC50", "setting": "CXCR1 receptor", "value": 5.26}]}, {"smiles": "COc1ccc(C(Nc2c(Nc3cccc(C(=O)N(C)C)c3O)c(=O)c2=O)C2(C)COC2)cc1", "note": "(stereo not drawn) [Example 29, 3-(2-{[(3-methyloxetan-3-yl)-(4-methoxyphenyl)methyl]amino}-3,4-dioxocyclobut-1-enylamino)-2-hydroxy-N,N-dimethylbenzamide]", "values": [{"measurement": "pIC50", "setting": "CXCR2 receptor", "value": 6.36}]}, {"smiles": "CN(C)C(=O)c1cccc(Nc2c(NC(c3ccc4c(c3)OCO4)C3(C)COC3)c(=O)c2=O)c1O", "note": "(stereo not drawn) [Example 30, 3-(2-{[benzo[1,3]dioxol-5-yl-(3-methyloxetan-3-yl)methyl]amino}-3,4-dioxocyclobut-1-enylamino)-2-hydroxy-N,N-dimethylbenzamide]", "values": [{"measurement": "pIC50", "setting": "CXCR2 receptor", "value": 6.46}, {"measurement": "pIC50", "setting": "CXCR1 receptor", "value": 5.65}]}, {"smiles": "CN(C)C(=O)c1cccc(Nc2c(NC(c3cccs3)C3(C)COC3)c(=O)c2=O)c1O", "note": "(stereo not drawn) [Example 34, 2-hydroxy-N,N-dimethyl-3-(2-{[(3-methyloxetan-3-yl)thiophen-2-ylmethyl]amino}-3,4-dioxocyclobut-1-enylamino)benzamide]", "values": [{"measurement": "pIC50", "setting": "CXCR2 receptor", "value": 6.97}, {"measurement": "pIC50", "setting": "CXCR1 receptor", "value": 5.79}]}, {"smiles": "CN(C)C(=O)c1cccc(Nc2c(NC(c3ccco3)C3(C)COC3)c(=O)c2=O)c1O", "note": "(stereo not drawn) [Example 36, 3-(2-{[furan-2-yl-(3-methyloxetan-3-yl)methyl]amino}-3,4-dioxocyclobut-1-enylamino)-2-hydroxy-N,N-dimethylbenzamide]", "values": [{"measurement": "pIC50", "setting": "CXCR2 receptor", "value": 6.70}, {"measurement": "pIC50", "setting": "CXCR1 receptor", "value": 5.77}]}, {"smiles": "Cc1coc(C(Nc2c(Nc3cccc(C(=O)N(C)C)c3O)c(=O)c2=O)C2(C)COC2)c1", "note": "(stereo not drawn) [Example 37a, 2-hydroxy-N,N-dimethyl-3-(2-{[(4-methylfuran-2-yl)-(3-methyloxetan-3-yl)methyl]amino}-3,4-dioxocyclobut-1-enylamino)benzamide]", "values": [{"measurement": "pIC50", "setting": "CXCR2 receptor", "value": 7.49}, {"measurement": "pIC50", "setting": "CXCR1 receptor", "value": 6.08}]}, {"smiles": "Cc1ccoc1C(Nc1c(Nc2cccc(C(=O)N(C)C)c2O)c(=O)c1=O)C1(C)COC1", "note": "(stereo not drawn) [Example 37b, 2-Hydroxy-N,N-dimethyl-3-(2-{[(3-methylfuran-2-yl)-(3-methyloxetan-3-yl)methyl]amino}-3,4-dioxocyclobut-1-enylamino)benzamide]", "values": [{"measurement": "pIC50", "setting": "CXCR2 receptor", "value": 6.68}, {"measurement": "pIC50", "setting": "CXCR1 receptor", "value": 5.11}]}, {"smiles": "CC(C)c1coc(C(Nc2c(Nc3cccc(C(=O)N(C)C)c3O)c(=O)c2=O)C2(C)COC2)c1", "note": "(stereo not drawn) [Example 38, 2-hydroxy-N,N-dimethyl-3-(2-{[(4-isopropylfuran-2-yl)-(3-methyloxetan-3-yl)methyl]amino}-3,4-dioxocyclobut-1-enylamino)benzamide]", "values": [{"measurement": "pIC50", "setting": "CXCR2 receptor", "value": 7.60}, {"measurement": "pIC50", "setting": "CXCR1 receptor", "value": 6.49}]}, {"smiles": "COc1ccc(Nc2c(NC(c3ccc(C)o3)C3(C)COC3)c(=O)c2=O)c(O)n1", "note": "(stereo not drawn) [Example 39, 3-(2-hydroxy-6-mèthoxypyridin-3-ylamino)-4-{[(5-methylfuran-2-yl)-(3-methyloxetan-3-yl)methyl]amino}cyclobut-3-ene-1,2-dione]", "values": [{"measurement": "pIC50", "setting": "CXCR2 receptor", "value": 5.99}, {"measurement": "pIC50", "setting": "CXCR1 receptor", "value": 5.00}]}, {"smiles": "Cc1ccc(C(Nc2c(Nc3ccc(Cl)nc3O)c(=O)c2=O)C2(C)COC2)o1", "note": "(stereo not drawn) [Example 40, 3-(6-chloro-2-hydroxypyridin-3-ylamino)-4-{[(5-methylfuran-2-yl)-(3-methyloxetan-3-yl)methyl]amino}cyclobut-3-ene-1,2-dione]", "values": [{"measurement": "pIC50", "setting": "CXCR2 receptor", "value": 6.30}, {"measurement": "pIC50", "setting": "CXCR1 receptor", "value": 5.28}]}, {"smiles": "Cc1ccc(C(Nc2c(Nc3cccc(C#N)c3O)c(=O)c2=O)C2(C)COC2)o1", "note": "(stereo not drawn) [Example 42, 2-hydroxy-3-(2-{[(5-methylfuran-2-yl)-(3-methyloxetan-3-yl)methyl]amino}-3,4-dioxocyclobut-1-enylamino)benzonitrile]", "values": [{"measurement": "pIC50", "setting": "CXCR2 receptor", "value": 6.51}]}, {"smiles": "Cc1ccc([C@H](Nc2c(Nc3cccc(C(=O)N(C)CC(F)(F)F)c3O)c(=O)c2=O)C2(C)COC2)o1", "note": "[Example 48, 2-hydroxy-N-methyl-3-(2-{[(R)-(5-methylfuran-2-yl)-(3-methyloxetan-3-yl)methyl]amino}-3,4-dioxocyclobut-1-enylamino)-N-(2,2,2-trifluoroethyl)benzamide]", "values": [{"measurement": "pIC50", "setting": "CXCR2 receptor", "value": 7.59}, {"measurement": "pIC50", "setting": "CXCR1 receptor", "value": 6.25}]}, {"smiles": "COC(=O)CN(C)C(=O)c1cccc(Nc2c(N[C@@H](c3ccc(C)o3)C3(C)COC3)c(=O)c2=O)c1O", "note": "[Example 51, methyl {[2-hydroxy-3-(2-{[(R)-(5-methylfuran-2-yl)-(3-methyloxetan-3-yl)methyl]amino}-3,4-dioxocyclobut-1-enylamino)benzoyl]methylamino}acetate]", "values": [{"measurement": "pIC50", "setting": "CXCR2 receptor", "value": 7.14}, {"measurement": "pIC50", "setting": "CXCR1 receptor", "value": 6.19}]}, {"smiles": "Cc1ccc([C@H](Nc2c(Nc3ccc(Cl)c(C(=O)N(C)C)c3O)c(=O)c2=O)C2(C)COC2)o1", "note": "[Example 52, 6-chloro-2-hydroxy-N,N-dimethyl-3-(2-{[(R)-(5-methylfuran-2-yl)-(3-methyloxetan-3-yl)methyl]amino}-3,4-dioxocyclobut-1-enylamino)benzamide]", "values": [{"measurement": "pIC50", "setting": "CXCR2 receptor", "value": 6.43}, {"measurement": "pIC50", "setting": "CXCR1 receptor", "value": 6.05}]}]}
